Measurements reported in article PMC7909954 (eLife, 2021).
Like-named read-outs stand apart in the source and are kept apart here.

Tests used:
KOR [1] = molecular target: T1, KOR (Homo sapiens, UniProt P41145); conditions: for Log RA cAMP hKOR / LogRA Tango hKOR: transduction coefficient log(T/KA)
KOR [2] = molecular target: T1, KOR; assay: cell-based; conditions: for EC50: EC50 arrestin recruitment (Tango) hKOR; for Emax: HTLA, read-out: Emax% arrestin recruitment (Tango) hKOR
MOR [3] = molecular target: T2, MOR (Homo sapiens, UniProt P35372); assay: cell-based; conditions: for Emax: HEK-293T, read-out: Emax% cAMP inhibition hMOR
T2 sequence (P35372 whole entry): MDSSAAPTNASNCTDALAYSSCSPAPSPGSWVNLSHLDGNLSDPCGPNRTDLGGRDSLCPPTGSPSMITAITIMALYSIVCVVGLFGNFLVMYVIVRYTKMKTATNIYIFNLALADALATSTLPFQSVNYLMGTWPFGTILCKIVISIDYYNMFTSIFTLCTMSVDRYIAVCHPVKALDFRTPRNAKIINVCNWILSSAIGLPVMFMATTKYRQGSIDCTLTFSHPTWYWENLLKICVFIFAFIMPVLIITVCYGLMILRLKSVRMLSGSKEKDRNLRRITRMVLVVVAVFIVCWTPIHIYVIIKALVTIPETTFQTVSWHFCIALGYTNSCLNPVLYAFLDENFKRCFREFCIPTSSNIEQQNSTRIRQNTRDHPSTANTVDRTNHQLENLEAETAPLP

KOR [4] = molecular target: T1, KOR; assay: cell-based; conditions: for EC50: EC50 cAMP inhibition hKOR; for Emax: HEK-293T, read-out: Emax% cAMP inhibition hKOR
MOR [5] = molecular target: T2, MOR
DOR [6] = molecular target: T3, DOR (Homo sapiens, UniProt P41143); assay: cell-based
T3 sequence (P41143 whole entry): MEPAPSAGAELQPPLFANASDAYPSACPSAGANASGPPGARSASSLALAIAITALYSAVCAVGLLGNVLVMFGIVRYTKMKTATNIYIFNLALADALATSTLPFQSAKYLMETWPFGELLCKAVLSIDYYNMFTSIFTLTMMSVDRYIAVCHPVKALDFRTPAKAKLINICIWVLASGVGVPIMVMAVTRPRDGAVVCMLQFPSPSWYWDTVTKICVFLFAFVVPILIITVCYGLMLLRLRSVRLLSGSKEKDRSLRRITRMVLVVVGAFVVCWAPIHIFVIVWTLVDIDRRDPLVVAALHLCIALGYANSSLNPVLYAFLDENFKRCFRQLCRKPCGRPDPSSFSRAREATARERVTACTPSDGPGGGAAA

DOR [7] = molecular target: T3, DOR; assay: cell-based; remark: listed apart in the source
mMOR [8] = molecular target: T4, mMOR (Mus musculus, UniProt P42866); assay: biochemical
T4 sequence (P42866 whole entry): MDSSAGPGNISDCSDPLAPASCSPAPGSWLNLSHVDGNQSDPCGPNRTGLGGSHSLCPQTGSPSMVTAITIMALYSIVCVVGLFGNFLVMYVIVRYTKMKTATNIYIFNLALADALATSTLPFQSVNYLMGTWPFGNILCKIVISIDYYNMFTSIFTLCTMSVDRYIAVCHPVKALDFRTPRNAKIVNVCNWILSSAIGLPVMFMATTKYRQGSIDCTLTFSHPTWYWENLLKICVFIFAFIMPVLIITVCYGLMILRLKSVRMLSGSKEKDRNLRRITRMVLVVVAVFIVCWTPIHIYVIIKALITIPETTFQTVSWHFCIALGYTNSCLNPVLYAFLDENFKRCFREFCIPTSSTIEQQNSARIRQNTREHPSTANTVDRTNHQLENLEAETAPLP

mMOR [9] = molecular target: T4, mMOR; assay: cell-based
mKOR [10] = molecular target: T5, mKOR (Mus musculus, UniProt P33534); assay: biochemical
T5 sequence (P33534 whole entry): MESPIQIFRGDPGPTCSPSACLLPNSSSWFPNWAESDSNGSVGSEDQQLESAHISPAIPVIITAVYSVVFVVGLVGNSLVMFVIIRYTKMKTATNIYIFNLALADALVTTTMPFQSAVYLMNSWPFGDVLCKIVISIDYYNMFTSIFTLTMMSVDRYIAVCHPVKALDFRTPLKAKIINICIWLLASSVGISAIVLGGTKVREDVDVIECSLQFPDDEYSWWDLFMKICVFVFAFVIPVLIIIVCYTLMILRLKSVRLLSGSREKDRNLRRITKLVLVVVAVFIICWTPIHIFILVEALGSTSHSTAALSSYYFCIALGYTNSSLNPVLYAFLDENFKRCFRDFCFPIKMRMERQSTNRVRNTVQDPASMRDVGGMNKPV

MOR [11] = molecular target: T2, MOR; remark: listed apart in the source
mMOR [12] = molecular target: T4, mMOR; assay: biochemical; remark: listed apart in the source
mDOR [13] = molecular target: T6, mDOR (Mus musculus, UniProt P32300); assay: biochemical; conditions: read-out: Emax mDOR [35S]GTPγS
T6 sequence (P32300 whole entry): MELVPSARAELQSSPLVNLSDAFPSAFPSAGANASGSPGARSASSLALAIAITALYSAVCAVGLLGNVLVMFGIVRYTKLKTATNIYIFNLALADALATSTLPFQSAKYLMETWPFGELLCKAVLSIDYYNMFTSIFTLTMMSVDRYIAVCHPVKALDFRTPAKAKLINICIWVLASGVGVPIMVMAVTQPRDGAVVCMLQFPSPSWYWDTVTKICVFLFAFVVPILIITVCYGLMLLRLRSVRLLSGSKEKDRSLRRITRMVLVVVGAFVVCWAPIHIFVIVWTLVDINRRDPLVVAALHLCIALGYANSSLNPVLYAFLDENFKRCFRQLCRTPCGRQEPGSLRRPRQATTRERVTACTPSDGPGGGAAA

mDOR [14] = molecular target: T6, mDOR; assay: cell-based
MOR [15] = molecular target: T2, MOR; assay: cell-based
rKOR = rKOR (Rattus norvegicus, UniProt P34975); assay: cell-based
rKOR, sequence (P34975 whole entry): as the sequence (P33534 whole entry) above, with D11E, S17A, S51P, A308V counted along it

mKOR [16] = molecular target: T5, mKOR; assay: biochemical; remark: listed apart in the source

T1 sequence (P41145 whole entry): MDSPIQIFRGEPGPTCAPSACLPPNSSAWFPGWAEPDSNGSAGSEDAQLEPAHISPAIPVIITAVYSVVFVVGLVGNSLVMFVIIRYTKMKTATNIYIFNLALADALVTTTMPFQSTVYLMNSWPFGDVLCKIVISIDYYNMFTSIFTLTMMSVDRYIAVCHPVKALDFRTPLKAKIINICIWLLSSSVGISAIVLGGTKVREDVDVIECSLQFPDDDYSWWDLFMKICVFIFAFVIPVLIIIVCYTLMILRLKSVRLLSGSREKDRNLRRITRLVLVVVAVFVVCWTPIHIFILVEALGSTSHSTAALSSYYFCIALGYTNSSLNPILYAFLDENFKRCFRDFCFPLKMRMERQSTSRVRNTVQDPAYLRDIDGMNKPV

O=C(N[C@@H]1CC[C@H]2[C@H]3Cc4ccc(O)c5c4[C@@]2(CCN3CC2CC2)[C@H]1O5)c1cccc(CO)c1 [MP1210, N-((4R,4aR,7R,7aR,12bS)−3-(cyclopropylmethyl)−9-hydroxy-2,3,4,4a,5,6,7,7a-octahydro-1H-4,12-methano[1]benzofuro[3,2-e]isoquinolin-7-yl)−3-(hydroxymethyl)benzamide]
ΔΔlog RA (cAMP-Tango) hKOR (KOR [1]): -0.28±0.19 | Log RA cAMP hKOR (KOR [1]): 10.59±0.06 | LogRA Tango hKOR (KOR [1]): 8.576±0.156 | ΔlogRA Tango hKOR (KOR [1]; vs U50,488h): 0.48±0.18 | ΔlogRA cAMP hKOR (KOR [1]; vs U50,488h): 0.2±0.081 | EC50 (KOR [2]): 1.16 nM | Emax (KOR [2]): 63 ± 3.3% | Emax (MOR [3]): 94.6 ± 0.98% | EC50 (MOR [3]; pEC50 cAMP inhibition hMOR): 0.155 nM | EC50 (KOR [4]): 0.025 nM | Emax (KOR [4]): 101 ± 1.1% | arrestin recruitment at hMOR (in words) (MOR [5]): null arrestin recruitment

CO[C@@]12CC[C@@H](NC(=O)c3cccc(I)c3)C3Oc4c(O)ccc5c4[C@@]31CCN(CC1CC1)C2C5 (stereo partly drawn) [MP1305, N-((4aS,7R,12bS)−3-(Cyclopropylmethyl)−9-hydroxy-4a-methoxy-2,3,4,4a,5,6,7,7a-octahydro-1H-4,12-methanobenzofuro[3,2-e]isoquinolin-7-yl)−3-iodobenzamide]
ΔΔlog RA (cAMP-Tango) hKOR (KOR [1]): 0.55±0.04 | Bias factor (cAMP-Tango) hKOR (KOR [1]; >1 G protein bias, <1 arrestin bias, vs U50,488h): 4 | Log RA cAMP hKOR (KOR [1]): 9.22±0.012 | LogRA Tango hKOR (KOR [1]): 7.17±0.025 | ΔlogRA Tango hKOR (KOR [1]; vs U50,488h): -1.341±0.036 | ΔlogRA cAMP hKOR (KOR [1]; vs U50,488h): -0.79±0.017 | EC50 (DOR [6]; EC50 cAMP inhibition hDOR): 74.2 nM | Emax (DOR [6]; HEK-293T, read-out: Emax% cAMP inhibition hDOR): 71 ± 2.4% | EC50 (DOR [7]; EC50 arrestin recruitment hDOR, Tango): 228 nM | Emax (DOR [7]; HTLA, read-out: Emax% arrestin recruitment hDOR): 89 ± 2.8% | EC50 (KOR [2]): 25.7 nM | Emax (KOR [2]): 75 ± 1% | Ki (mMOR [8]): 0.25 ± 0.02 nM | EC50 (mMOR [9]; EC50 G protein activation (BRET) mMOR): 0.74 nM | Emax (mMOR [9]; HEK-293T, read-out: Emax% G protein activation (BRET) mMOR): 72 ± 2% | Ki (mKOR [10]): 2.5 ± 0.3 nM | Bias factor (cAMP-Tango) hMOR (MOR [11]): 11 | Log RA cAMP hMOR (MOR [11]): 9.79±0.053 | LogRA Tango hMOR (MOR [11]): 6.89±0.048 | ΔlogRA Tango hMOR (MOR [11]): 0.109±0.049 | ΔlogRA cAMP hMOR (MOR [11]): 1.17±0.076 | ΔΔlog RA (cAMP-Tango) hMOR (MOR [11]): 1.059±0.090 | EC50 (mMOR [12]; EC50 mMOR [35S]GTPγS, ± SEM): 0.7 ± 0.1 nM | Emax (mMOR [12]; read-out: Emax mMOR [35S]GTPγS): 81.2 ± 16% | Emax (mDOR [13]): 22 ± 0.9% | EC50 (MOR [3]; EC50 cAMP inhibition hMOR): 0.12 nM | Emax (MOR [3]): 69 ± 1.8% | EC50 (KOR [4]): 0.72 nM | Emax (KOR [4]): 102 ± 1.2% | EC50 (mDOR [14]; EC50 G protein activation (BRET) mDOR): 40.4 nM | Emax (mDOR [14]; HEK-293T, read-out: Emax% G protein activation (BRET) mDOR): 105 ± 5.9% | EC50 (MOR [15]): 16.4 nM | Emax (MOR [15]; HTLA, read-out: Emax% arrestin recruitment (Tango) hMOR): 21 ± 3% | EC50 (rKOR): 5.04 nM | Emax (rKOR; HEK-293T, read-out: Emax% G protein activation (BRET) rKOR): 35 ± 3% | EC50 (mKOR [16]; EC50 mKOR [35S]GTPγS, ± SEM): 7.4 ± 1.8 nM | Emax (mKOR [16]; read-out: Emax mKOR [35S]GTPγS): 42.2 ± 5.3%
